Measurements reported in publication PMC9841298 (Clinical and Translational Science, 2022).
Where two headings read alike, the source gives them in different places.

How the values were obtained:
[1] = ref website drug bank, cited from earlier work
[2] = PKPlus two-compartmental PK model fitted to reference product plasma data; set-up: species or system human
[3] = fasting, two-compartmental model, from reference product 2.0 mg data of ref 13

O=C(O)C[C@H](O)C[C@H](O)/C=C/c1c(C2CC2)nc2ccccc2c1-c1ccc(F)cc1 [pitavastatin calcium]
Log P ([1]; model input): 3.75 | pKa ([1]; model input): 4.86 | Solubility ([1]; pH 4.68): 65.2 µg/mL | Solubility ([1]; water): 3.94 µg/mL | distribution coefficient from the peripheral to central compartment (k21) [2, 3]: 0.086 h⁻¹ | distribution constant from the central to the peripheral compartment (k12) [2, 3]: 0.252 h⁻¹ | Vd ([2]; human, plasma, oral, 2 mg): 43.2 L | clearance ([2]; human, plasma, oral, 2 mg): 343 mL/min
